Experimental data: PubChem BioAssay (NCI)
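Tested at 5 concentrations; 48 h exposure; 96-well plates; endpoints linearly interpolated, else capped at highest concentration. TGI denotes the concentration required for complete inhibition of growth.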

Tests used:
Test in all cases: NCI tumour cell line growth inhibition, 48 h
A498 renal = test system: A498 renal
CAKI-1 renal = test system: CAKI-1 renal
CCRF-CEM leukemia = test system: CCRF-CEM leukemia
COLO 205 colon = test system: COLO 205 colon
EKVX NSCLC = test system: EKVX NSCLC
HCT-116 colon = test system: HCT-116 colon
HL-60(TB) leukemia = test system: HL-60(TB) leukemia
HT29 colon = test system: HT29 colon
MDA-MB-435 = test system: MDA-MB-435
NCI-H226 lung = test system: NCI-H226 lung
OVCAR-3 ovarian = test system: OVCAR-3 ovarian
PC-3 prostate = test system: PC-3 prostate
SK-MEL-28 melanoma = test system: SK-MEL-28 melanoma
SNB-75 CNS = test system: SNB-75 CNS
U251 CNS = test system: U251 CNS

Compound | TGI (A498 renal) [µM] | TGI (CAKI-1 renal) [µM] | TGI (CCRF-CEM leukemia) [µM] | TGI (COLO 205 colon) [µM] | TGI (EKVX NSCLC) [µM] | TGI (HCT-116 colon) [µM] | TGI (HL-60(TB) leukemia) [µM] | TGI (HT29 colon) [µM] | TGI (MDA-MB-435) [µM] | TGI (NCI-H226 lung) [µM] | TGI (OVCAR-3 ovarian) [µM] | TGI (PC-3 prostate) [µM] | TGI (SK-MEL-28 melanoma) [µM] | TGI (SNB-75 CNS) [µM] | TGI (U251 CNS) [µM]
COc1cccc2c(Nc3ccc(S(=O)(=O)NC(C)=O)cc3)c3ccc([N+](=O)[O-])cc3nc12 | > 100 | > 100 | > 100 | > 95.7 | > 100 | > 100 | > 100 | 28.5 | > 65.2 | > 64.7 | > 90.4 | > 100 | > 79.5 | > 100 | > 53.5
COc1cc(Nc2cnc3cc(F)c(F)cc3n2)cc(OC)c1 | > 100 | > 100 | > 100 | > 100 | > 100 | > 100 | > 100 | > 100 | > 100 | > 100 | > 100 | > 100 | > 100 | 53.4 | > 100
CC1(C)CCCCCCC2OC2CCCCCC(C)(C)C1=O (stereo not given) | > 100 | > 100 | > 69.4 | 29.5 | > 100 | > 100 | 57 | > 60.5 | > 100 | > 94.4 | > 100 | > 94.6 | > 100 | > 100 | 63.2
CCCCC(=O)NC1(c2cc3ccccc3s2)CCCCC1 | > 100 | > 100 | > 100 | > 100 | > 100 | > 100 | 76.5 | > 100 | > 100 | > 100 | > 100 | > 100 | > 100 | > 100 | > 100
O=c1oc2ccccc2c(O)c1C(c1ccc(/C=C/c2ccccc2)cc1)c1c(O)c2ccccc2oc1=O | > 100 | 61.3 | > 100 | 71.8 | > 100 | > 100 | > 100 | 37.2 | 80 | 74.4 | > 100 | > 100 | 86.9 | 66.5 | 43.9
COc1ccc(-c2c(CN3CCOCC3)sc3nc4ccccc4n23)cc1 | 72.4 | > 100 | 56.2 | 49.4 | > 57.4 | > 57 | > 73.2 | 31.1 | 14.4 | > 79.8 | > 80.9 | > 67.4 | 98.6 | > 100 | 41.5
CCOC(=O)C(NC(=O)CC(C)C)(Nc1ccc(S(=O)(=O)Nc2nc(C)cc(C)n2)cc1)C(F)(F)F (stereo not given) | > 100 | > 100 | > 100 | > 100 | > 100 | > 100 | > 100 | > 100 | > 100 | > 100 | > 100 | > 100 | > 100 | > 100 | > 100
